{"source": "patent US20220232869A1", "about": "“Steviol Glycoside Sweeteners with Improved Flavor Profiles” (The Coca-Cola Company, priority 2015, published 2022)", "test": "Sensory evaluation of 5 Brix and 10 Brix acidified water beverages by 15 panelists", "format": "in vivo", "design": "Astringency / Acidity / Sweet Aftertaste / Bitter Aftertaste / Overall Liking / Sweetness / Bitterness: scale not given here", "details": "panel score", "experimental": "5 Brix and 10 Brix beverages were prepared by combining purified water containing 303 ppm citric acid and a sweetener. The 5 Brix beverages contained one of the following sweeteners: (i) 5% (wt/wt) sugar, (ii) 200 ppm A95 or (iii) 200 ppm of a 70 wt % Reb D/30 wt % Reb M blend. The 10 Brix beverages contained one of the following sweeteners: (i) 10% (wt/wt) sugar, (ii) 900 ppm A95 or (iii) 900 ppm of a 70 wt % Reb D/30wt % Reb M blend.\nThe beverages were served at room temperature in 2 oz clear plastic sample cups. 15 panelists evaluated the beverages for various tastes and flavors. Prior to sample evaluation, all panelists rinsed their palate with warm water. The assessors were instructed to take a sip of each beverage and rate the mouth feel and taste/flavor characteristics. 15 seconds after ingestion panelists were instructed to rate sweetness linger and aftertaste. Between samples evaluation a 1 minute rest period was allowed during which they rinsed their palate with warm water and 0.25% NaCl solution.\nThe various tastes and flavors measured in the evaluation are defined as follows: […]", "key": {"[1]": {"details": "5 brix target, 5% sugar, 200 ppm A95 or 200 ppm blend"}, "[2]": {"details": "10 brix target, 10% sugar, 900 ppm A95 or 900 ppm blend"}}}
{"smiles": "OC[C@H]1O[C@@](CO)(O[C@H]2O[C@H](CO)[C@@H](O)[C@H](O)[C@H]2O)[C@@H](O)[C@@H]1O", "note": "[Sugar]", "values": [{"measurement": "Acidity", "setting": "[1]", "result": 0.99}, {"measurement": "Astringency", "setting": "[1]", "result": 0.84}, {"measurement": "Bitter Aftertaste", "setting": "[1]", "result": 0.33}, {"measurement": "Bitterness", "setting": "[1]", "result": 0.75}, {"measurement": "Off-Note (Metallic/Licorice)", "setting": "[1]", "result": 0.52}, {"measurement": "Overall Liking", "setting": "[1]", "result": 4.96}, {"measurement": "Sweet Aftertaste", "setting": "[1]", "result": 0.56}, {"measurement": "Sweetness", "setting": "[1]", "result": 4.91}, {"measurement": "Acidity", "setting": "[2]", "result": 1.08}, {"measurement": "Astringency", "setting": "[2]", "result": 0.92}, {"measurement": "Bitter Aftertaste", "setting": "[2]", "result": 0.37}, {"measurement": "Bitterness", "setting": "[2]", "result": 0.55}, {"measurement": "Off-Note (Metallic/Licorice)", "setting": "[2]", "result": 0.51}, {"measurement": "Overall Liking", "setting": "[2]", "result": 6.34}, {"measurement": "Sweet Aftertaste", "setting": "[2]", "result": 1.08}, {"measurement": "Sweetness", "setting": "[2]", "result": 8.45}]}
